In one data set the test system is Bacillus cereus. Put plainly: Agar plate disc-diffusion, antibacterial activity (inhibition zone). In kind it is cell-based. To be noted: nutrient agar, 37° C., 48 h, DMSO zone subtracted. The procedure: (§1) The agar plate disc-diffusion method was applied. Sterilized filter papers (6 mm in diameter) were wetted with 10 μL of a solution of 2-ethoxy-6-(2-oxo-2H-1-benzopyran-3-yl)-4-phenylpyridine-3-carbonitrile (1) and 2-methoxy-6-(2-oxo-2H-1-benzopyran-3-yl)-4-phenylpyridine-3-carbonitrile (2) to be tested, containing […], and the discs were allowed to air dry. The discs were then placed onto the surface of agar plates (nutrient agar for bacteria and Sabouraud's dextrose agar for fungi) seeded with the test organism. Each plate contained 15 mL of the agar medium, previously seeded with 0.2 mL of the broth culture of each organism pregrown for 18 hours. The plates were incubated at 37° C. for 48 h, and 72 h for fungi. The inhibition zones were measured in mm. Discs impregnated with DMSO were used as a control, and its inhibition zone was subtracted from the tested compound actual inhibition zone.
(In general: A growth-free zone around the sample is the usual read-out of agar diffusion tests.)

A further data set relates to Escherichia coli. The description is as above. In kind it is cell-based. To be noted: nutrient agar, 37° C., 48 h, DMSO zone subtracted. The procedure: as §1
Another data set concerns Pseudomonas aeruginosa. The data set is described as above. It counts as cell-based. To be noted: nutrient agar, 37° C., 48 h, DMSO zone subtracted. The method, then: as §1
The next data set concerns Staphylococcus aureus. Described as above. It counts as cell-based. To be noted: nutrient agar, 37° C., 48 h, DMSO zone subtracted. The procedure: as §1
The next data set deals with Aspergillus flavus. The data set can be described thus: Agar plate disc-diffusion, antifungal activity (inhibition zone). It counts as cell-based. To be noted: Sabouraud's dextrose agar, 72 h, DMSO zone subtracted. The method, then:
as §1

Data set [1] deals with Chrysosporium keratinophilum. The description is as above. To be noted: Sabouraud's dextrose agar, 72 h, DMSO zone subtracted. In kind it is cell-based. The procedure: as §1
For the next data set, the system named is different microbes. Put plainly: Antimicrobial testing, overall statement on Tables 1 and 2. To be noted: summary of Tables 1 and 2; bacteria and fungi tested. In kind it is cell-based. The method, then:
as §1
Their antibacterial activity was screened against gram positive bacteria namely Bacillus cereus and Staphylococcus aureus and gram-negative bacterial strains namely Pseudomonas aeruginosa and Escherichia coli, while their antifungal activity was screened against Aspergillus flavus and Chrysosporium keratinophilum.

Setting [2] is: A = concentration of comp. = 10,000 μL.
[3] abbreviates: B = concentration of comp. = 30.000 μL.
[4] abbreviates: C = concentration of comp. = 50,000 μL.

Take `O=C(O)c1cn(C2CC2)c2cc(N3CCNCC3)c(F)cc2c1=O` [Cip., reference compound]: the inhibition zone with Bacillus cereus (setting [2]) amounted to 29 mm; with Bacillus cereus (setting [3]), 30 mm; with Bacillus cereus (setting [4]), 42 mm; in the data set on Escherichia coli (setting [2]), 30 mm; with Escherichia coli (setting [3]), 39 mm; with Escherichia coli (setting [4]), 60 mm. The inhibition zone in the data set with Pseudomonas aeruginosa (setting [2]) is reported as 29 mm; with Pseudomonas aeruginosa (setting [3]), 30 mm; in the data set on Pseudomonas aeruginosa (setting [4]), 53 mm; in the data set with Staphylococcus aureus (setting [2]), 43 mm; in the data set with Staphylococcus aureus (setting [3]) it was 44 mm; in the data set with Staphylococcus aureus (setting [4]), 53 mm. In addition, the inhibition zone in the data set on Aspergillus flavus (setting [2]) was determined as 29 mm; in the data set with Aspergillus flavus (setting [3]), 30 mm; in the data set with Aspergillus flavus (setting [4]), 42 mm; in data set [1] (setting [2]), 29 mm; in data set [1] (setting [3]), 30 mm; in data set [1] (setting [4]), 53 mm.
Regarding `CCOc1nc(-c2cc3ccccc3oc2=O)cc(-c2ccccc2)c1C#N` [Compound 1, 2-ethoxy-6-(2-oxo-2H-1-benzopyran-3-yl)-4-phenylpyridine-3-carbonitrile], the inhibition zone in the data set on Bacillus cereus (setting [2]) is recorded as 31 mm; with Bacillus cereus (setting [3]), 36 mm; with Bacillus cereus (setting [4]), 43 mm; in the data set with Escherichia coli (setting [2]) it was 38 mm; in the data set with Escherichia coli (setting [3]), 43 mm; with Escherichia coli (setting [4]), 48 mm. In addition, the inhibition zone in the data set with Pseudomonas aeruginosa (setting [2]) is recorded as 25 mm; in the data set on Pseudomonas aeruginosa (setting [3]), 32 mm; with Pseudomonas aeruginosa (setting [4]), 40 mm; with Staphylococcus aureus (setting [2]) it was 11 mm; in the data set on Staphylococcus aureus (setting [3]), 19 mm; with Staphylococcus aureus (setting [4]) it was 21 mm. The inhibition zone in the data set on Aspergillus flavus (setting [2]) stood at 29 mm; with Aspergillus flavus (setting [3]), 33 mm; with Aspergillus flavus (setting [4]), 41 mm; in data set [1] (setting [2]) it was 22 mm; in data set [1] (setting [3]), 31 mm; in data set [1] (setting [4]), 37 mm. The “antimicrobial activity (in words)” value in the data set on different microbes is “high antimicrobial activities”.
Compound `COc1nc(-c2cc3ccccc3oc2=O)cc(-c2ccccc2)c1C#N` [Compound 2, 2-methoxy-6-(2-oxo-2H-1-benzopyran-3-yl)-4-phenylpyridine-3-carbonitrile] registered a melting point of 149 to 150 °C. Moreover, in the data set with Bacillus cereus (setting [2]), the inhibition zone is reported as 33 mm. Further, the inhibition zone with Bacillus cereus (setting [3]) turned out to be 38 mm. Besides, in the data set on Bacillus cereus (setting [4]), the inhibition zone is reported as 44 mm. Besides, the inhibition zone with Escherichia coli (setting [2]) is listed as 37 mm. In addition, the inhibition zone with Escherichia coli (setting [3]) came to 43 mm. In the data set on Escherichia coli (setting [4]), this compound displayed an inhibition zone of 49 mm. This compound displayed an inhibition zone with Pseudomonas aeruginosa (setting [2]) of 25 mm. Moreover, the inhibition zone in the data set on Pseudomonas aeruginosa (setting [3]) worked out at 34 mm. The inhibition zone in the data set with Pseudomonas aeruginosa (setting [4]) worked out at 41 mm. This compound also gave an inhibition zone in the data set with Staphylococcus aureus (setting [2]) of 15 mm. The compound further showed an inhibition zone in the data set with Staphylococcus aureus (setting [3]) of 22 mm. Further, the inhibition zone with Staphylococcus aureus (setting [4]) is reported as 25 mm. The compound also had an inhibition zone with Aspergillus flavus (setting [2]) of 17 mm. In the data set on Aspergillus flavus (setting [3]), this compound gave an inhibition zone of 21 mm. For the same compound, the inhibition zone in the data set with Aspergillus flavus (setting [4]) turned out to be 29 mm. Also, the inhibition zone in data set [1] (setting [2]) came out at 31 mm. In data set [1] (setting [3]), the inhibition zone is 39 mm. This compound displayed an inhibition zone in data set [1] (setting [4]) of 47 mm. The “antimicrobial activity (in words)” value in the data set with different microbes is listed as “high antimicrobial activities”.

The term melting point denotes the temperature, or range, at which the solid turns liquid.

The record behind these values is patent US11905277B1, “2-alkyloxy-6-(2-oxo-2H-1-benzopyran-3-yl)-4-phenylpyridine-3-carbonitrile as an antimicrobial compound” (KING FAISAL UNIVERSITY, priority 2023, dated 2024).
